Source: patent US12030878B2 (BRISTOL-MYERS SQUIBB COMPANY, priority 2017, dated 2024)

Tests used:
Format in all cases: cell-based
human TLR9 = target: T1, human TLR9 (Homo sapiens, UniProt Q9NR96); assay: TLR9 inhibition reporter assay (HEK-Blue SEAP); conditions: HEK-Blue cells overexpressing human TLR9, stimulated with ODN2006 5 nM, 22 hour incubation
T1 construct: host or cells: HEK-Blue cells
T1 sequence (Q9NR96 26-1032): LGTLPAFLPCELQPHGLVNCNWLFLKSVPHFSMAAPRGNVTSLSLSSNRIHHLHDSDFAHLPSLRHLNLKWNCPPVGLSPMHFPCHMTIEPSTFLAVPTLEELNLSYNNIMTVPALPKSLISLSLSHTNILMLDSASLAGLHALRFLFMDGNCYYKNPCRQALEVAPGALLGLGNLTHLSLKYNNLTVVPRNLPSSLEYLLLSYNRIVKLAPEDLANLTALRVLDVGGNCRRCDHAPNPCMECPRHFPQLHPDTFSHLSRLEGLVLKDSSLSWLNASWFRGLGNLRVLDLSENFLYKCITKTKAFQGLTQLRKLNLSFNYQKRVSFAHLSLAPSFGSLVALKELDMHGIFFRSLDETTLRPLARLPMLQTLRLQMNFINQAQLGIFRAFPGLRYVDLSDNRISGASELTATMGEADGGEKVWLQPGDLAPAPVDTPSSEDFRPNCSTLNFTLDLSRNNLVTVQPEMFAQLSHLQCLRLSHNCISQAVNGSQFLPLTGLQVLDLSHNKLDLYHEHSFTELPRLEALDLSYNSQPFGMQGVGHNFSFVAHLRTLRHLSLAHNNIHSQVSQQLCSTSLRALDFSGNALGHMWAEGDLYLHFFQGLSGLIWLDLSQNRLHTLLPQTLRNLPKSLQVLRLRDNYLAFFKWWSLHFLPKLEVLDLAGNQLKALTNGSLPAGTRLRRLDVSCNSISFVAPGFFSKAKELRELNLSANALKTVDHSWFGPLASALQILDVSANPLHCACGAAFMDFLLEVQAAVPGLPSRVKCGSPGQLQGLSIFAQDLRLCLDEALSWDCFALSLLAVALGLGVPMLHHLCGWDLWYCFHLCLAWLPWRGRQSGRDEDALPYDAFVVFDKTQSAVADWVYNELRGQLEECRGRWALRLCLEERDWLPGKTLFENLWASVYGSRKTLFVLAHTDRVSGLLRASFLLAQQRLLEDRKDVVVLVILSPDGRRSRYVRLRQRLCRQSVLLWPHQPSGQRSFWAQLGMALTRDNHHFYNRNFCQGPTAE
Method in brief: (§1)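 SEAP read-out via HEK-Blue Detection medium after 22 h at 37 °C; percent inhibition relative to agonist-plus-DMSO and known-inhibitor wells. Agonists: TLR7 gardiquimod 7.5 μM, TLR8 R848 15.9 μM, TLR9 ODN2006 5 nM. Dose range 0.05 nM–50 μM, 30 min compound pre-treatment at RT.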

human TLR7 = target: T2, human TLR7 (Homo sapiens, UniProt Q9NYK1); assay: TLR7 inhibition reporter assay (HEK-Blue SEAP); conditions: HEK-Blue cells overexpressing human TLR7, stimulated with gardiquimod 7.5 μM, 22 hour incubation
T2 construct: host or cells: HEK-Blue cells
T2 sequence (Q9NYK1 27-1049): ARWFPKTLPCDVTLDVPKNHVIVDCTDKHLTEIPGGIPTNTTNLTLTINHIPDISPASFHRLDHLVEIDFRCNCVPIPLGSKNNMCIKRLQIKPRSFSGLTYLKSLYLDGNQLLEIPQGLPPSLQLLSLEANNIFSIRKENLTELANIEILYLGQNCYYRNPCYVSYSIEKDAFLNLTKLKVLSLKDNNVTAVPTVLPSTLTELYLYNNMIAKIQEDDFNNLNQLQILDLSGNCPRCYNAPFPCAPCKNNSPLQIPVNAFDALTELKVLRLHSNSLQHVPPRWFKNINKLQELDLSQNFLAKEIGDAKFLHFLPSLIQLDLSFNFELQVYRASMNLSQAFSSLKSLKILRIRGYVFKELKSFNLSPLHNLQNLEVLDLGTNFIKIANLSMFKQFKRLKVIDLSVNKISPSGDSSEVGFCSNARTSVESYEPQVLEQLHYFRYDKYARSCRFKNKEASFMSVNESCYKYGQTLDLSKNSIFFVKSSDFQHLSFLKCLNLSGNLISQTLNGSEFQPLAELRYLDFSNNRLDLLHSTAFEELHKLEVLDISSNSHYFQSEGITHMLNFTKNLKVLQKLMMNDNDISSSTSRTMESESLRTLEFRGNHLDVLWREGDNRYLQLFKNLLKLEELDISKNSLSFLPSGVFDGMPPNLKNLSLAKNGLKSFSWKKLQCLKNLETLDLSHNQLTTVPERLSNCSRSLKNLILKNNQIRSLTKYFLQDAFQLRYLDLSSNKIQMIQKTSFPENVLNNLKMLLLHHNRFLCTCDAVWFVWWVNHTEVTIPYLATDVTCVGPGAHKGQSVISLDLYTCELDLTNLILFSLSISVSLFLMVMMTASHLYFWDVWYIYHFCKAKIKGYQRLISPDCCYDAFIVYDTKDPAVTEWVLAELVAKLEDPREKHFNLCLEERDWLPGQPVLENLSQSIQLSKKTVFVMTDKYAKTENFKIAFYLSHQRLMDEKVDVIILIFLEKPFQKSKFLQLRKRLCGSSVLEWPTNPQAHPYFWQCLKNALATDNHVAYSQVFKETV
Method in brief: as §1

human TLR8 = target: T3, human TLR8 (Homo sapiens, UniProt Q9NR97); assay: TLR8 inhibition reporter assay (HEK-Blue SEAP); conditions: HEK-Blue cells overexpressing human TLR8, stimulated with R848 15.9 μM, 22 hour incubation
T3 construct: host or cells: HEK-Blue cells
T3 sequence (Q9NR97 27-1041): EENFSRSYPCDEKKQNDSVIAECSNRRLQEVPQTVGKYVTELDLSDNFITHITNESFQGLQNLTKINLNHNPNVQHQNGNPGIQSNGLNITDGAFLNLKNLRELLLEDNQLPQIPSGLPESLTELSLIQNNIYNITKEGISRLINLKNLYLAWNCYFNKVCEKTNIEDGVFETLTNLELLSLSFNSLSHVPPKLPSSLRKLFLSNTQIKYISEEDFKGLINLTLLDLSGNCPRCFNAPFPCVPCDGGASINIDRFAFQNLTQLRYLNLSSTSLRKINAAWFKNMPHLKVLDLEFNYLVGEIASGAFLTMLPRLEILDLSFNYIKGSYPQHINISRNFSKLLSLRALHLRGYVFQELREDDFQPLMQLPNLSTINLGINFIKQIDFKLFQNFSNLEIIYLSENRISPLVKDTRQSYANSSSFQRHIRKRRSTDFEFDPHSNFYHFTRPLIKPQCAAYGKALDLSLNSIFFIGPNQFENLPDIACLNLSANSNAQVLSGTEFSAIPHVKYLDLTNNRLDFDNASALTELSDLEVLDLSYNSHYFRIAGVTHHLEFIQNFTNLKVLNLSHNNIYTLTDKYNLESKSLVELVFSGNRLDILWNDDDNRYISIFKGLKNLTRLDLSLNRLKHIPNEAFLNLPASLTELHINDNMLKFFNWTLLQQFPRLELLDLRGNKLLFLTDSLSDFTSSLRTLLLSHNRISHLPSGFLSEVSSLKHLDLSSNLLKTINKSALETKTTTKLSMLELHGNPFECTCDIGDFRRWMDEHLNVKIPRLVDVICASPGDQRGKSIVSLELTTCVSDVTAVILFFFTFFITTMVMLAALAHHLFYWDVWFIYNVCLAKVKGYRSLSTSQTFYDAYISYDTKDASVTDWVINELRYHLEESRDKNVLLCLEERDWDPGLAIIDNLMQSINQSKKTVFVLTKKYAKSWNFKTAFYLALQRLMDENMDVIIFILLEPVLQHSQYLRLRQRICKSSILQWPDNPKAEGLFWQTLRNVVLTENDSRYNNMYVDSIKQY
Method in brief: as §1

SMILES: Cc1cc(-c2[nH]c3ccc(OCC(=O)N4CCC5(CCNCC5)C4)cc3c2C(C)C)ccn1 [Example 144, 2-((3-isopropyl-2-(2-methylpyridin-4-yl)-1H-indol-5-yl)oxy)-1-(2,8-diazaspiro[4.5]decan-2-yl)ethan-1-one]
- IC50 (human TLR9): 296 nM
- IC50 (human TLR7): 917 nM
- IC50 (human TLR8): 176 nM

SMILES: Cc1cc(-c2[nH]c3ccc(OCC(=O)N4CC5CNCC5C4)cc3c2C(C)C)ccn1 (stereo not drawn) [Example 145, 1-(hexahydropyrrolo[3,4-c]pyrrol-2(H)-yl)-2-((3-isopropyl-2-(2-methylpyridin-4-yl)-1H-indol-5-yl)oxy)ethan-1-one]
- IC50 (human TLR9): 260 nM
- IC50 (human TLR7): 315 nM
- IC50 (human TLR8): 137 nM

SMILES: Cc1cc(-c2[nH]c3ccc(OCC(=O)NCCC4CCCNC4)cc3c2C(C)C)ccn1 (stereo not drawn) [Example 146, 2-((3-isopropyl-2-(2-methylpyridin-4-yl)-1H-indol-5-yl)oxy)-N-(2-(piperidin-3-yl)ethyl)acetamide]
- IC50 (human TLR9): 937 nM
- IC50 (human TLR7): 771 nM
- IC50 (human TLR8): 98.4 nM

SMILES: Cc1cc(-c2[nH]c3ccc(OCC(=O)N4CCC(CN)CC4)cc3c2C(C)C)ccn1 [Example 147, 1-(4-(aminomethyl)piperidin-1-yl)-2-((3-isopropyl-2-(2-methylpyridin-4-yl)-1H-indol-5-yl)oxy)ethan-1-one]
- IC50 (human TLR9): 1540 nM
- IC50 (human TLR7): 1200 nM
- IC50 (human TLR8): 474 nM

SMILES: Cc1cc(-c2[nH]c3ccc(OCC(=O)N(C)C4CCNCC4)cc3c2C(C)C)ccn1 [Example 148, 2-((3-isopropyl-2-(2-methylpyridin-4-yl)-1H-indol-5-yl)oxy)-N-methyl-N-(piperidin-4-yl) acetamide]
- IC50 (human TLR9): 172 nM
- IC50 (human TLR7): 142 nM
- IC50 (human TLR8): 51.4 nM

SMILES: Cc1cc(-c2[nH]c3ccc(OCC(=O)N4CC5CN(C)CC5C4)cc3c2C(C)C)ccn1 (stereo not drawn) [Example 149, 2-((3-isopropyl-2-(2-methylpyridin-4-yl)-1H-indol-5-yl)oxy)-1-(5-methylhexahydropyrrolo[3,4-c]pyrrol-2(1H)-yl)ethan-1-one]
- IC50 (human TLR9): 410 nM
- IC50 (human TLR7): 119 nM
- IC50 (human TLR8): 23.8 nM

SMILES: COc1ccc(-c2[nH]c3ccc(OCC(=O)NCC(C)(C)O)cc3c2C(C)C)cc1OC [Example 150, 2-((2-(3,4-dimethoxyphenyl)-3-isopropyl-1H-indol-5-yl)oxy)-N-(2-hydroxy-2-methylpropyl)acetamide]
- IC50 (human TLR9): > 50000 nM
- IC50 (human TLR7): 302 nM
- IC50 (human TLR8): 947 nM

SMILES: Cc1cc(-c2[nH]c3ccc(OCC(=O)NCC(C)(C)O)cc3c2C(C)C)ccn1 [Example 151, N-(2-hydroxy-2-methylpropyl)-2-((3-isopropyl-2-(2-methylpyridin-4-yl)-1H-indol-5-yl)oxy)acetamide]
- IC50 (human TLR9): > 50000 nM
- IC50 (human TLR7): 404 nM
- IC50 (human TLR8): 561 nM

SMILES: Cc1cc(-c2[nH]c3ccc(OCC(=O)NC[C@@H](F)C(C)(C)O)cc3c2C(C)C)ccn1 [Example 152, (R)—N-(2-fluoro-3-hydroxy-3-methylbutyl)-2-((3-isopropyl-2-(2-methylpyridin-4-yl)-1H-indol-5-yl)oxy)acetamide]
- IC50 (human TLR9): > 50000 nM
- IC50 (human TLR7): 1000 nM
- IC50 (human TLR8): 774 nM

SMILES: COc1ccc(-c2[nH]c3ccc(OCC(=O)NCCC(C)(C)O)cc3c2C(C)C)cc1OC [Example 153, 2-((2-(3,4-dimethoxyphenyl)-3-isopropyl-1H-indol-5-yl)oxy)-N-(3-hydroxy-3-methylbutyl)acetamide]
- IC50 (human TLR9): > 50000 nM
- IC50 (human TLR7): 461 nM
- IC50 (human TLR8): 2530 nM

SMILES: COc1ccc(-c2[nH]c3ccc(OCC(=O)NC[C@@H](F)C(C)(C)O)cc3c2C(C)C)cc1OC [Example 154, (R)-2-((2-(3,4-dimethoxyphenyl)-3-isopropyl-1H-indol-5-yl)oxy)-N-(2-fluoro-3-hydroxy-3-methylbutyl) acetamide]
- IC50 (human TLR9): > 50000 nM
- IC50 (human TLR7): 899 nM
- IC50 (human TLR8): 1890 nM

SMILES: Cc1cc(-c2[nH]c3ccc(OCC(=O)NCCC(C)(C)O)cc3c2C(C)C)ccn1 [Example 155, N-(3-hydroxy-3-methylbutyl)-2-((3-isopropyl-2-(2-methylpyridin-4-yl)-1H-indol-5-yl)oxy)acetamide]
- IC50 (human TLR9): > 50000 nM
- IC50 (human TLR7): 778 nM
- IC50 (human TLR8): 731 nM
